SMILES strings stand for the structures. Like-named read-outs stand apart in the source and are kept apart here. A value given as a limit tells only on which side of the number the result lay.

Broadly, the Cmax is the maximum level reached in the sampled fluid or tissue. One may read the Km as the concentration of substrate that gives half-maximal velocity. By inhibition is commonly meant the share of the control response that was lost under treatment. Low readings indicate a response near the control, high ones a response far below the control.

Data set [1] concerns the target T1, MATE1 (Homo sapiens, UniProt Q96FL8).
T1 sequence (Q96FL8 1-570): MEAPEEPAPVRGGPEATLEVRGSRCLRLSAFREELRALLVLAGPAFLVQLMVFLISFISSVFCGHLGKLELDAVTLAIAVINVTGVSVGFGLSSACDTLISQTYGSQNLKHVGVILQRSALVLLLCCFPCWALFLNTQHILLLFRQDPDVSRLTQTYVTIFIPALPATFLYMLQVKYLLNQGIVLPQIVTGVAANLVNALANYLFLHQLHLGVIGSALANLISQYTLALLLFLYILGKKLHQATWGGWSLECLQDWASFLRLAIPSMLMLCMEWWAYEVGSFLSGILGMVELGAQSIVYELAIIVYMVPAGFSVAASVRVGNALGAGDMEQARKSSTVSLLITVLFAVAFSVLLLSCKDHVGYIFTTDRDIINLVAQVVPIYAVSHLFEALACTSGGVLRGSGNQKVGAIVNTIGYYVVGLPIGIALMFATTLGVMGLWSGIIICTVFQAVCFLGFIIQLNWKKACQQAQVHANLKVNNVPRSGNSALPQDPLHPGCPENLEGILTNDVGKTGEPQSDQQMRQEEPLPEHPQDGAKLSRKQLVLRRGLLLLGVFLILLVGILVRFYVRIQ
Format: cell-based.

Data set [2] addresses T1, MATE1. Description: High throughput screen.
For data set [3] the following is noted: cited from earlier work.
In data set [4] the target is T1, MATE1. The data set can be described thus: 14C-metformin uptake in HEK293 cells stably expressing MATE1.
In data set [5] the target is T1, MATE1.
For data set [6], the target named is T1, MATE1. The data set can be described thus: in vitro. The following applies: HEK cells stably overexpressing MATE1, pH 7.4.
For data set [7] the following is noted: ref 53 (Micromedex); cited from earlier work.
The target in another data set is human MATE2-K (Homo sapiens, UniProt Q86VL8). Format: cell-based. The note with it: for did not inhibit MATE2-K up to: highest concentration without inhibition, data not shown.
In another data set the target is T2, human OCT2 (Homo sapiens, UniProt O15244).
T2 sequence (O15244 1-555): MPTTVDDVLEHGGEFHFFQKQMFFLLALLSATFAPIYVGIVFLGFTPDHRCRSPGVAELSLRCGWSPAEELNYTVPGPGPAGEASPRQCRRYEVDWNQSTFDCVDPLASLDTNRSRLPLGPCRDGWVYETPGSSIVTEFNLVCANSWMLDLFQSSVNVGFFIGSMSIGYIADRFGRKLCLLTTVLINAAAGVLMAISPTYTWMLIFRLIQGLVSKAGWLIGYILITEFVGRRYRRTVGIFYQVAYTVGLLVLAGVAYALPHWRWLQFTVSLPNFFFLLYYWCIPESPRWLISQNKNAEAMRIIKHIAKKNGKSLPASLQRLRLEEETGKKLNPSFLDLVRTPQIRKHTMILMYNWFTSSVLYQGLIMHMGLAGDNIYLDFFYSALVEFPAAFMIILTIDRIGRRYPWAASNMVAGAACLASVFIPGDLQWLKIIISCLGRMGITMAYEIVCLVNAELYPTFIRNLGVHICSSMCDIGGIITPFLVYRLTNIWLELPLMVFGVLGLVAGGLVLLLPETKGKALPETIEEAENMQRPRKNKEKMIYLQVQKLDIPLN
The format is cell-based.

The mark [8] stands for this setting: clinical plasma concentration, ref 54-58 (a-e).

Sequence of human MATE2-K (Q86VL8 1-566 isoform Q86VL8-3): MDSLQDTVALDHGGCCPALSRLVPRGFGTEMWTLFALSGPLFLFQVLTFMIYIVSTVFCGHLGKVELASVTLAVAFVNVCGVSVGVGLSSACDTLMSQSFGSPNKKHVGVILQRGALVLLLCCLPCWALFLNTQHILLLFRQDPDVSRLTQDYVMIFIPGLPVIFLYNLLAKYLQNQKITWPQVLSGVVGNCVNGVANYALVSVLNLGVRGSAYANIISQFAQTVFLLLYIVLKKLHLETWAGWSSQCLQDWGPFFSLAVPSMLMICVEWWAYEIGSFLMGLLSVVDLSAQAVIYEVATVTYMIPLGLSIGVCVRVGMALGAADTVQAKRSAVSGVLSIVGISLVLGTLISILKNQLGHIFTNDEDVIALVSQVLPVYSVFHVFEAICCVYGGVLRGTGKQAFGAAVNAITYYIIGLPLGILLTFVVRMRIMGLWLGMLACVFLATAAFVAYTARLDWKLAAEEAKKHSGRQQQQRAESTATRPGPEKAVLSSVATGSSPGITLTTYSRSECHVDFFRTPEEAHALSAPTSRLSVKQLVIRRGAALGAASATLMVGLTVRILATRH

Regarding `COc1cc2c3cc1Oc1cc(ccc1O)C[C@@H]1c4c(cc(OC)c(O)c4Oc4ccc(cc4)C[C@@H]3N(C)CC2)CC[N+]1(C)C` [Tubocurarine], the “Cmax,unbound /IC50 (MATE1, text)” value on MATE1 [1] is given as 0.07. The same molecule registered an IC50 on MATE1 [2] of 1.1 µM.

For `NC(N)=Nc1nc(CSCCC(N)=NS(N)(=O)=O)cs1` [Famotidine], the “Cmax,unbound/ IC50 of MATE1, ASP^+” value at MATE1 [1] (ratio, IC50 with ASP+ in HEK293-MATE1, clinical relevance threshold ≥ 0.1) was determined as 0.51. Moreover, the Cmax in data set [3] (in vivo) is 460 nM. Besides, the figures for the IC50 at MATE1 [4] and against MATE1 [5] were 0.09 µM and 0.16 µM, respectively. Moreover, on MATE1 [4] (ratio, IC50 with 14C-metformin in HEK293-MATE1, threshold ≥ 0.1), the “Cmax,unbound/ IC50 of MATE1, Metformin” value came to 4.34. Also, at MATE1 [5] (ratio, IC50 with 14C-metformin in polarized MDCK-hMATE1, threshold ≥ 0.1), the “Cmax,unbound/ IC50 of MATE1, Metformin Polarized Cells” value is 2.44.

In the case of `O=C1c2c(O)ccc(O)c2C(=O)c2c(NCCNCCO)ccc(NCCNCCO)c21` [Mitoxantrone], the Cmax in [3] (in vivo) is 630 nM. `N=C(N)c1ccc(OCCCCCOc2ccc(C(=N)N)cc2)cc1` [Pentamidine]: the Cmax in data set [3] (in vivo) is 730 nM. `CCOC(=O)c1ccc(OC(=O)CCCCCNC(=N)N)cc1` [Gabaxate]: on MATE1 [2] (read-out: prIC50, predicted IC50 estimated from screening inhibition at 20 μM), the IC50 is 0.8 µM. For the molecule `CN(C)c1ccc(/C=C/c2cc[n+](C)cc2)cc1` [ASP^+, 4-(4-(Dimethylamino)styryl)-N-methylpyridinium iodide], at MATE1 [6], the Km at […] was determined as 34 µM.

In turn, `CN1C[C@H](C(=O)N[C@]2(C)O[C@@]3(O)[C@@H]4CCCN4C(=O)[C@H](Cc4ccccc4)N3C2=O)C[C@@H]2c3cccc4[nH]cc(c34)C[C@H]21` [Dihydroergotamine] displayed an IC50 against MATE1 [2] of 8 µM. `COc1ccnc(C[S+]([O-])c2nc3ccc(OC(F)F)cc3[nH]2)c1OC` (stereo not drawn) [Pantoprazole]: in [7], the “Protein Binding [% bound]” value is 98 % bound.

`[H]/N=C(\N/C(=N/[H])NCCCCCCNC(=N)NC(=N)Nc1ccc(Cl)cc1)Nc1ccc(Cl)cc1` [Chlorhexidine]: the IC50 against MATE1 [2] amounted to 3.1 µM.

`CC(C)(C)NC(=O)[C@@H]1CN(Cc2cccnc2)CCN1C[C@@H](O)C[C@@H](Cc1ccccc1)C(=O)N[C@H]1c2ccccc2C[C@H]1O` [Indinavir]: the Cmax in [3] (setting [8]) is 9800 nM. `CC[C@@]1(O)C(=O)OCc2c1cc1n(c2=O)Cc2cc3c(CN(C)C)c(O)ccc3nc2-1` [Topotecan] displayed an IC50 against MATE1 [2] of 19.7 µM. In the case of `Cc1nccn1CC1CCc2c(c3ccccc3n2C)C1=O` (stereo not drawn) [Ondansetron], in data set [3] (setting [8]), the Cmax was 440 nM. Further, in data set [7], the “Protein Binding [% bound]” value was 73 % bound. Consider `CCc1c2c(nc3ccc(OC(=O)N4CCC(N5CCCCC5)CC4)cc13)-c1cc3c(c(=O)n1C2)COC(=O)[C@]3(O)CC` [Irinotecan], for which, in data set [3] (in vivo), the Cmax is 4600 nM. The molecule `NC1=NCC2c3ccccc3Cc3ccccc3N12` (stereo not drawn) [Epinastine] showed an IC50 at MATE1 [2] of 0.6 µM. Same read-out and setting: then `C#C[C@]1(O)CC[C@H]2[C@@H]3CCc4cc(O)ccc4[C@H]3CC[C@@]21C` [Ethinyl estradiol], with 13.5 µM. Consider `CO[C@@H]1[C@@H](O[C@@H]2O[C@H](C)[C@@H](O[C@H]3C[C@@](C)(O)[C@@H](OC(=O)CC(C)C)[C@H](C)O3)[C@H](N(C)C)[C@H]2O)[C@@H](CC=O)C[C@@H](C)[C@@H](O)/C=C/C=C/C[C@@H](C)OC(=O)C[C@H]1O` [Leucomycin], for which the IC50 at MATE1 [1] was determined as 11.1 µM; on human MATE2-K, 125 µM; against human OCT2 it was 182 µM; on MATE1 [2], 16 µM. Further, the inhibition at 20 µM at MATE1 [2] (human, HEK cells stably overexpressing MATE1, pH 7.4, probe ASP+ (5 µM)) was 56 ± 1%. Take `COc1ccc2c(c1OC)C(=O)O[C@@H]2[C@H]1c2c(cc3c(c2OC)OCO3)CCN1C` [Noscapine]: the “did not inhibit MATE2-K up to” value at human MATE2-K was above 500 µM.

In the case of `COc1ccccc1OCCNCC(O)COc1cccc2[nH]c3ccccc3c12` (stereo not drawn) [Carvedilol], the “did not inhibit MATE2-K up to” value on human MATE2-K is above 500 µM.

In the case of `CN1C2CCCC1CC(NC(=O)c1nn(C)c3ccccc13)C2` (stereo not drawn) [Granisetron], the IC50 against MATE1 [2] is 9.9 µM.
